Test results reported in the supplement of paper PMC10307832.

Assays:
Test in all cases: relative viability (nuclei count vs DMSO), 5 days (fraction); higher = more cells survive
BI-2536 + Pictilisib = compound: CC[C@@H]1C(=O)N(C)c2cnc(Nc3ccc(C(=O)NC4CCN(C)CC4)cc3OC)nc2N1C1CCCC1 [BI-2536] + CS(=O)(=O)N1CCN(Cc2cc3nc(-c4cccc5[nH]ncc45)nc(N4CCOCC4)c3s2)CC1 [Pictilisib] (partner 1 µM)
Summary of the method: (§1)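 Lung cancer cell lines in 1536-well plates were dosed by pin tool the day after seeding, either with one drug alone or with a fixed anchor-drug dose plus five library-drug doses (not always all listed) in √10 steps. After 5 days, cells were fixed and their nuclei stained in one step (final 0.05% Triton X-100, 1% formaldehyde, 1 ug/ml Hoechst), then counted on 4× images. Relative viability is the nuclei count in treated wells divided by that in vehicle wells. Values are medians of duplicate plates.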

[1] = compound: CC1CC(=O)N(C2=CN=C(N=C2N1C3CCCC3)NC4=C(C=C(C=C4)C(=O)NC5CCN(CC5)C)OC)C [NPK76-II-72-1] + CC(=O)Nc1cccc(-n2c(=O)n(C3CC3)c(=O)c3c(Nc4ccc(I)cc4F)n(C)c(=O)c(C)c32)c1 [Trametinib] (partner 0.02 µM)
Summary of the method: as §1

BI-2536 + Olaparib = compound: CC[C@@H]1C(=O)N(C)c2cnc(Nc3ccc(C(=O)NC4CCN(C)CC4)cc3OC)nc2N1C1CCCC1 [BI-2536] + O=C(c1cc(Cc2n[nH]c(=O)c3ccccc23)ccc1F)N1CCN(C(=O)C2CC2)CC1 [Olaparib] (partner 8 µM)
Summary of the method: as §1

[2] = compound: CC1CC(=O)N(C2=CN=C(N=C2N1C3CCCC3)NC4=C(C=C(C=C4)C(=O)NC5CCN(CC5)C)OC)C [NPK76-II-72-1] + CCNC(=O)c1noc(-c2cc(C(C)C)c(O)cc2O)c1-c1ccc(CN2CCOCC2)cc1 [Luminespib] (partner 0.01 µM)
Summary of the method: as §1

Cell Line	relative viability (BI-2536 + Pictilisib; first compound 0.01 µM)	relative viability (BI-2536 + Pictilisib; first compound 0.03162 µM)	relative viability (BI-2536 + Pictilisib; first compound 0.1 µM)	relative viability (BI-2536 + Pictilisib; first compound 0.3162 µM)	relative viability (BI-2536 + Pictilisib; first compound 1 µM)	relative viability ([1]; first compound 0.01 µM)	relative viability ([1]; first compound 0.03162 µM)	relative viability ([1]; first compound 0.1 µM)	relative viability ([1]; first compound 0.3162 µM)	relative viability ([1]; first compound 1 µM)	relative viability (BI-2536 + Olaparib; first compound 0.01 µM)	relative viability (BI-2536 + Olaparib; first compound 0.03162 µM)	relative viability (BI-2536 + Olaparib; first compound 0.1 µM)	relative viability (BI-2536 + Olaparib; first compound 0.3162 µM)	relative viability (BI-2536 + Olaparib; first compound 1 µM)	relative viability ([2]; first compound 0.01 µM)	relative viability ([2]; first compound 0.03162 µM)	relative viability ([2]; first compound 0.1 µM)	relative viability ([2]; first compound 0.3162 µM)	relative viability ([2]; first compound 1 µM)
HCC-78	0.26	0.25	0.166	0.13	0.0467	0.711	0.704	0.575	0.828	0.742	0.783	0.904	0.774	0.47	0.204	–	–	–	–	–
HCC-366	0.144	0.179	0.0833	0.0304	0.0488	0.336	0.403	0.372	0.308	0.424	0.323	0.368	0.21	0.0235	0.0223	–	–	–	–	–
HCC-827	0.917	1.02	0.976	0.533	0.339	0.557	0.491	0.556	0.633	0.565	0.693	0.611	0.531	0.214	0.194	0.602	0.619	0.447	0.879	0.702
HOP-62	0.704	0.965	0.159	0.0849	0.127	0.384	0.415	0.337	0.428	0.37	–	0.309	0.191	0.101	0.089	0.975	1.04	0.885	0.789	0.992
IA-LM	0.346	0.264	0.0753	0.0992	0.0622	–	–	–	–	–	0.763	0.752	0.402	0.101	0.102	–	–	–	–	–
LC-2-ad	0.552	0.192	0.0937	0.0909	0.0871	0.826	0.934	0.983	0.92	0.945	0.705	0.621	0.24	0.205	0.205	0.979	1.12	0.955	1.04	1.16
LCLC-97TM1	0.182	0.185	0.127	0.11	0.0962	0.203	0.208	0.181	0.215	0.209	0.463	0.292	0.233	0.0868	0.0916	0.673	0.768	0.532	0.748	0.748
LCLC-103H	0.585	0.568	0.508	0.711	0.144	–	0.673	0.556	0.709	0.693	0.742	0.86	0.77	0.358	0.216	0.9	1.05	0.919	1.03	1.01
LK-2	0.569	0.389	0.375	0.196	0.297	0.767	0.65	0.584	0.609	0.69	0.578	0.491	0.28	0.098	0.134	0.183	0.214	0.215	0.191	0.191
LOU-NH91	0.545	0.516	0.474	0.284	0.276	0.76	0.751	0.777	0.739	0.829	0.934	0.728	0.612	0.336	0.28	0.305	0.324	0.347	0.33	0.345
LU99A	0.308	0.301	0.14	0.128	0.138	0.591	0.542	0.596	0.536	0.602	0.23	0.24	0.192	0.137	0.149	0.261	0.212	0.304	0.238	0.278
LXF-289	0.839	0.759	0.126	0.0466	0.0562	0.71	0.691	0.644	0.703	0.68	1	0.719	0.343	0.0702	0.0622	0.614	0.761	0.675	0.694	0.688
NCI-H522	–	–	–	–	–	0.811	0.619	0.747	–	0.79	0.655	0.594	0.689	0.364	0.316	1.05	1.1	1.42	1.14	1.27
NCI-H1299	0.708	0.351	0.154	0.0991	0.0448	–	–	–	–	–	1.01	0.907	0.828	0.237	0.221	–	–	–	–	–
NCI-H1563	0.699	0.61	0.558	0.578	0.511	–	–	–	–	–	–	–	–	–	–	0.5	0.627	0.578	0.519	0.504
NCI-H1623	–	–	–	–	–	–	–	–	–	–	–	–	–	–	–	0.448	0.382	0.513	0.421	0.574
NCI-H1648	–	–	–	–	–	0.503	0.504	0.369	0.384	0.494	0.794	0.887	0.545	0.23	0.275	–	–	–	–	–
NCI-H1703	0.244	0.239	0.137	0.174	0.131	–	–	–	–	–	0.426	0.315	0.209	0.102	0.111	–	–	–	–	–
NCI-H2342	–	–	–	–	–	0.871	0.655	0.909	0.809	0.461	–	0.424	0.367	0.319	0.26	0.653	0.6	0.67	0.548	0.709
SW 900	–	–	–	–	–	0.871	1.07	0.66	0.587	1.11	0.804	1.05	0.691	0.215	0.153	0.183	0.19	0.171	0.169	0.169
